# Source: patent publication US10752900B2, “Oligonucleotides for modulating gene expression and uses thereof” (BIOGENERA S.P.A., priority 2012, dated 2020)
# Legend:
# NIH-3T3 = assay: Cellular proliferation, NIH-3T3 fibroblastoid-type cells; format: cell-based; settings: Table 1; cells that do not express MYCN
# Procedure: Cell viability was assessed by means of an ATP-Lite assay (Luminescence ATP Detection Assay System, PerkinElmer) and is reported as the ratio between the average signal of the treated wells compared to the average value of the wells of untreated control cells. The cells were processed following the instructions provided with the kit.
# Moreover, the oligonucleotides having SEQ ID NO 1-23 were administered in lines of fibroblastoid-type cells (NIH-3T3 and Phoenix) and the results are shown in Table 1 (last two columns). […]
# MYCN gene = assay: QT-PCR, MYCN mRNA in H69 cells; format: cell-based, human; settings: Table 6
# Procedure: For the purpose of assessing the ability of the oligonucleotides of the present invention to modulate the expression of the target genes, their ability to reduce the quantity of messenger RNA was analyzed using the Real-Time PCR technique.
# For this purpose, use was made of 24-well plates, which were seeded with 5.0×10^4 cells with 0.3 ml of OPTI-MEM (GIBCO BRL) medium, 4% FBS and 2 mM L-glutammine (experiments in triplicate) per well.
# The cells were incubated for 24 hours at 37° C., in an atmosphere containing 5% CO2 to permit adherence to the base of the wells.
# For each well, the oligonucleotides were analyzed at the following final concentrations: • the antisense oligonucleotides siRNA and siRNA gapmer (i.e. the oligonucleotides containing one or more monomers of chemically modified nucleic acids at the 3′ or 5′ end, while in the central portion they have monomers of nucleic acids that have not been modified or have been modified at the level of the phosphodiester bond as a phosphorothioate bond) were used at 200 nM; • the antisense oligonucleotides containing phosphorothioate DNA monomers, the RNA antigene oligonucleotides (agRNA) and the oligonucleotides containing DNA monomers and LNA monomers were used at 10 μM; • the morpholino oligonucleotides were used at a concentration of 1 μM, and • the PNA oligonucleotides were administered at a concentration of 1 μM.
# The cells were treated with the oligonucleotides, adding FBS up to 4% 6 hours after administration of the same. After 24 hours the total RNA was extracted from each well and purified using the RNeasy Mini Kit (QIAGEN).
# Assays were performed on 8 cell lines obtained from 5 different human tumours which are correlated with MYCN expression, i.e.: • as a neuroblastoma model use was made of the cell lines Kelly, IMR-32 (where the MYCN gene is amplified and superexpressed) and SKNBE2c and LAN1 (where the MYCN gene is amplified and superexpressed and the p53 gene is mutated); • as a rabdomiosarcoma model use was made of the cell line RH30, where the MYCN gene is amplified and superexpressed; • as a Wilms' tumour model use was made of the cell line WiT49, where the MYCN gene is amplified and superexpressed; • as a retinoblastoma model use was made of the cell line Y79, where the MYCN gene is amplified and superexpressed; and • as a model of small cell lung cancer use was made of the cell line H69 where the MYCN gene is amplified and superexpressed.
# As a control, use was made of the same cell lines as listed above treated with sterile water instead of oligonucleotides. Each RNA sample was quantified (in duplicate) using a NanoDrop ND-1000 spectrophotometer (NanoDrop Technologies). The first strand of cDNA was produced using the cDNA Synthesis Kit for RT-PCR (Roche). For the cDNA synthesis reaction a total of 1 μg of RNA was used. For the real-time PCR, 10 ng of cDNA in a final volume of 20 μl was used with SYBR Green Master Mix 2× (Applied Biosystems) (3 identical experiments were conducted in triplicate). Two housekeeping genes were used as positive controls: GAPDH and beta-actin (ACTB).
# The conditions of the QT-PCR reaction were: 10 min at 95° C., 20 sec at 95° C., and 30 sec at 60° C., for 50 cycles.
# The PNAs having SEQ ID NO: 1-12 were also tested on different cell lines which overexpress MYCN (Kelly, SKNBE2c, RH30, WiT49, WERI-Rb1 1 and H69). The results are shown in Table 6 and confirm the selectivity and specificity of the inhibition effect of the PNAs on the product of protein translation of the MYCN gene.
# The oligonucleotides were tested in vitro (at a concentration of 2.5 μM) to determine their ability to inhibit the transcription of the gene they are directed against by measuring the levels of the gene messenger in cellular models in which the gene of interest is overexpressed. The methods used are the ones described in example 1. […]
Substance,NIH-3T3 prolif. (%) (NIH-3T3),H69 % mRNA (MYCN gene)
"SEQ ID NO: 1: PNA ATGCCGGGCATGATCT against MYCN; subject of patent EP 1618195, control sequence used for comparison (all peptide nucleic acid (PNA)) [reference compound]",100%,40%
"SEQ ID NO: 2: PNA antigene oligonucleotide GGGTGGATGCGGGGGG directed against MYCN (PNA backbone, chemistry not fully specified)",100%,58%
"SEQ ID NO: 3: PNA antigene oligonucleotide GATGCGGGGGGCTCCT directed against MYCN (PNA backbone, chemistry not fully specified)",100%,55%
"SEQ ID NO: 4: PNA antigene oligonucleotide GTCGGCGGGAGGTAAG directed against MYCN (PNA backbone, chemistry not fully specified)",100%,55%
"SEQ ID NO: 5: PNA antigene oligonucleotide GCTGGGTGGATGCGGG directed against MYCN (PNA backbone, chemistry not fully specified)",100%,54%
"SEQ ID NO: 6: PNA antigene oligonucleotide TGGACGCGCTGGGTGG directed against MYCN (PNA backbone, chemistry not fully specified)",100%,55%
SEQ ID NO: 7: PNA antigene oligonucleotide CGCGCTGGGTGGATGC directed against MYCN (all peptide nucleic acid (PNA)),100%,55%
SEQ ID NO: 8: PNA antigene oligonucleotide GTCTGGACGCGCTGGG directed against MYCN (all peptide nucleic acid (PNA)),100%,56%
SEQ ID NO: 9: PNA antigene oligonucleotide CCCTGCAGTCGGCGGG directed against MYCN (all peptide nucleic acid (PNA)),100%,50%
"SEQ ID NO: 10: PNA antigene oligonucleotide CGGCCGCGGGCCGCCA directed against MYCN (PNA backbone, chemistry not fully specified)",100%,41%
"SEQ ID NO: 11: PNA antigene oligonucleotide GGGAACTGTGTTGGAG directed against MYCN (PNA backbone, chemistry not fully specified)",100%,41%
SEQ ID NO: 12: PNA antigene oligonucleotide TGTCTGGACGCGCTGG directed against MYCN (all peptide nucleic acid (PNA)),100%,40%
